In the data set the test system is CCRIS mutagenicity, Ames/micronucleus/aberration tests. In words: CCRIS mutagenicity studies.
Setting [1] is: Test System: AMES SALMONELLA TYPHIMURIUM, Strain/Indicator: TA98, Metabolic Activation: HAMSTER, LIVER, S-9, AROCLOR 1254 (10%), Method: PREINCUBATION
The mark [2] stands for this setting: Test System: AMES SALMONELLA TYPHIMURIUM, Strain/Indicator: TA98, Metabolic Activation: NONE, Method: PREINCUBATION
Setting [3] is: Test System: AMES SALMONELLA TYPHIMURIUM, Strain/Indicator: TA98, Metabolic Activation: RAT, LIVER, S-9, AROCLOR 1254 (10%), Method: PREINCUBATION
The mark [4] stands for this setting: Test System: AMES SALMONELLA TYPHIMURIUM, Strain/Indicator: TA98, Metabolic Activation: RAT, LIVER, S-9, AROCLOR 1254, Method: PREINCUBATION
[5] abbreviates: Test System: AMES SALMONELLA TYPHIMURIUM, Strain/Indicator: TA100, Metabolic Activation: HAMSTER, LIVER, S-9, AROCLOR 1254 (10%), Method: PREINCUBATION
Setting [6] is: Test System: AMES SALMONELLA TYPHIMURIUM, Strain/Indicator: TA100, Metabolic Activation: NONE, Method: PREINCUBATION
Setting [7] is: Test System: AMES SALMONELLA TYPHIMURIUM, Strain/Indicator: TA100, Metabolic Activation: RAT, LIVER, S-9, AROCLOR 1254 (10%), Method: PREINCUBATION
Setting [8] is: Test System: AMES SALMONELLA TYPHIMURIUM, Strain/Indicator: TA100, Metabolic Activation: RAT, LIVER, S-9, AROCLOR 1254, Method: PREINCUBATION
The mark [9] stands for this setting: Test System: AMES SALMONELLA TYPHIMURIUM, Strain/Indicator: TA1535, Metabolic Activation: HAMSTER, LIVER, S-9, AROCLOR 1254 (10%), Method: PREINCUBATION
[10] abbreviates: Test System: AMES SALMONELLA TYPHIMURIUM, Strain/Indicator: TA1535, Metabolic Activation: NONE, Method: PREINCUBATION
Where [11] appears, read: Test System: AMES SALMONELLA TYPHIMURIUM, Strain/Indicator: TA1535, Metabolic Activation: RAT, LIVER, S-9, AROCLOR 1254 (10%), Method: PREINCUBATION
Setting [12] is: Test System: AMES SALMONELLA TYPHIMURIUM, Strain/Indicator: TA1537, Metabolic Activation: NONE, Method: PREINCUBATION

Active and inactive are the calls of the source. No rule for the calls is given here.

With `O=[N+]([O-])c1cc([As](=O)(O)O)ccc1O`, the mutagenic call is “inactive; negative; testing limited by solubility of the chemical” (End Point: IN VITRO CHROMOSOMAL ABERRATIONS, Test System: CHO CELLS, Metabolic Activation: RAT, LIVER, S-9, AROCLOR 1254); “inactive; negative” (End Point: IN VITRO CHROMOSOMAL ABERRATIONS, Test System: CHO CELLS, Metabolic Activation: RAT, LIVER, S-9, PHENOBARBITAL AND BETA-NAPHTHOFLAVONE); “inactive; negative” under setting [1]; “inactive; negative” (Test System: AMES SALMONELLA TYPHIMURIUM, Strain/Indicator: TA98, Metabolic Activation: HAMSTER, LIVER, S-9, AROCLOR 1254, Method: PREINCUBATION); “inactive; negative” under setting [2]; “inactive; negative” under setting [3]. Also, the mutagenic call under setting [4] is “inactive; negative”; the mutagenic call under setting [5] is “inactive; negative”; the mutagenic call (Test System: AMES SALMONELLA TYPHIMURIUM, Strain/Indicator: TA100, Metabolic Activation: HAMSTER, LIVER, S-9, AROCLOR 1254, Method: PREINCUBATION) is “inactive; negative”; the mutagenic call under setting [6] was “inactive; negative”; the mutagenic call under setting [7] was “inactive; negative”; the mutagenic call under setting [8] is “inactive; negative”. For the same compound, the mutagenic call under setting [9] is “inactive; negative”; the mutagenic call (Test System: AMES SALMONELLA TYPHIMURIUM, Strain/Indicator: TA1535, Metabolic Activation: HAMSTER, LIVER, S-9, AROCLOR 1254, Method: PREINCUBATION) is “inactive; negative”; the mutagenic call under setting [10] was “inactive; negative”; the mutagenic call under setting [11] is “inactive; negative”; the mutagenic call (Test System: AMES SALMONELLA TYPHIMURIUM, Strain/Indicator: TA1535, Metabolic Activation: RAT, LIVER, S-9, AROCLOR 1254, Method: PREINCUBATION) was “inactive; negative”; the mutagenic call (Test System: AMES SALMONELLA TYPHIMURIUM, Strain/Indicator: TA1537, Metabolic Activation: HAMSTER, LIVER, S-9, AROCLOR 1254 (10%), Method: PREINCUBATION) is “inactive; negative”. Further, the mutagenic call (Test System: AMES SALMONELLA TYPHIMURIUM, Strain/Indicator: TA1537, Metabolic Activation: HAMSTER, LIVER, S-9, AROCLOR 1254, Method: PREINCUBATION) is “inactive; negative”; the mutagenic call under setting [12] was “inactive; negative”; the mutagenic call (Test System: AMES SALMONELLA TYPHIMURIUM, Strain/Indicator: TA1537, Metabolic Activation: RAT, LIVER, S-9, AROCLOR 1254 (10%), Method: PREINCUBATION) was “inactive; negative”; the mutagenic call (Test System: AMES SALMONELLA TYPHIMURIUM, Strain/Indicator: TA1537, Metabolic Activation: RAT, LIVER, S-9, AROCLOR 1254, Method: PREINCUBATION) is “inactive; negative”; the mutagenic call (Test System: MOUSE LYMPHOMA, Strain/Indicator: L5178Y (TK+/TK-), Metabolic Activation: NONE, Method: SUSPENSION/PLATE) was “active; positive”.
Regarding `O=[N+]([O-])c1ccc2c3c(cccc13)C=C2`, where the note is “Test System: AMES SALMONELLA TYPHIMURIUM, Strain/Indicator: TA98, Metabolic Activation: NONE, Method: STANDARD PLATE”, the mutagenic call was “active; positive”.
Take `O=[N+]([O-])c1c(O)c(Cl)cc(Cl)c1Cl`: the mutagenic call is “inactive; negative” (Test System: AMES SALMONELLA TYPHIMURIUM, Strain/Indicator: TA97, Metabolic Activation: HAMSTER, LIVER, S-9, AROCLOR 1254 (5 OR 10%), Method: PREINCUBATION); “inactive; negative” (Test System: AMES SALMONELLA TYPHIMURIUM, Strain/Indicator: TA97, Metabolic Activation: HAMSTER, LIVER, S-9, AROCLOR 1254 (30%), Method: PREINCUBATION); “inactive; negative” (Test System: AMES SALMONELLA TYPHIMURIUM, Strain/Indicator: TA97, Metabolic Activation: NONE, Method: PREINCUBATION); “inactive; negative” (Test System: AMES SALMONELLA TYPHIMURIUM, Strain/Indicator: TA97, Metabolic Activation: RAT, LIVER, S-9, AROCLOR 1254 (10%), Method: PREINCUBATION); “inactive; negative” (Test System: AMES SALMONELLA TYPHIMURIUM, Strain/Indicator: TA97, Metabolic Activation: RAT, LIVER, S-9, AROCLOR 1254 (30%), Method: PREINCUBATION); “inactive; negative” under setting [1]. The mutagenic call by setting is: (Test System: AMES SALMONELLA TYPHIMURIUM, Strain/Indicator: TA98, Metabolic Activation: HAMSTER, LIVER, S-9, AROCLOR 1254 (30%), Method: PREINCUBATION) “inactive; negative”; under setting [2], “inactive; negative”; under setting [3], “inactive; negative”; (Test System: AMES SALMONELLA TYPHIMURIUM, Strain/Indicator: TA98, Metabolic Activation: RAT, LIVER, S-9, AROCLOR 1254 (30%), Method: PREINCUBATION) “inactive; negative”; under setting [5], “inactive; negative”; (Test System: AMES SALMONELLA TYPHIMURIUM, Strain/Indicator: TA100, Metabolic Activation: HAMSTER, LIVER, S-9, AROCLOR 1254 (30%), Method: PREINCUBATION) “inactive; negative”. The mutagenic call reads like this: under setting [6], “inactive; negative”; under setting [7], “inactive; negative”; (Test System: AMES SALMONELLA TYPHIMURIUM, Strain/Indicator: TA100, Metabolic Activation: RAT, LIVER, S-9, AROCLOR 1254 (30%), Method: PREINCUBATION) “inactive; negative”; under setting [9], “inactive; negative”; (Test System: AMES SALMONELLA TYPHIMURIUM, Strain/Indicator: TA1535, Metabolic Activation: HAMSTER, LIVER, S-9, AROCLOR 1254 (30%), Method: PREINCUBATION) “inactive; negative”; under setting [10], “inactive; negative”. For the same compound, the mutagenic call reads like this: under setting [11], “inactive; negative”; (Test System: AMES SALMONELLA TYPHIMURIUM, Strain/Indicator: TA1535, Metabolic Activation: RAT, LIVER, S-9, AROCLOR 1254 (30%), Method: PREINCUBATION) “inactive; negative”; (Test System: AMES SALMONELLA TYPHIMURIUM, Strain/Indicator: TA1537, Metabolic Activation: HAMSTER, LIVER, S-9, AROCLOR 1254 (30%), Method: PREINCUBATION) “inactive; negative”; under setting [12], “inactive; negative”; (Test System: AMES SALMONELLA TYPHIMURIUM, Strain/Indicator: TA1537, Metabolic Activation: RAT, LIVER, S-9, AROCLOR 1254 (30%), Method: PREINCUBATION) “inactive; negative”.
As to `CNc1ccc2ncc(-c3ccccc3)nc2c1C`, the mutagenic call is, setting by setting: under setting [2], “inactive; negative”; (Test System: AMES SALMONELLA TYPHIMURIUM, Strain/Indicator: TA98, Metabolic Activation: RAT, LIVER, S-9, PCB, Method: PREINCUBATION) “active; positive”; under setting [6], “inactive; negative”; (Test System: AMES SALMONELLA TYPHIMURIUM, Strain/Indicator: TA100, Metabolic Activation: RAT, LIVER, S-9, PCB, Method: PREINCUBATION) “active; positive”.
In the case of `Cc1ccc(C=O)cc1`, the mutagenic call was “inactive; negative” under setting [2]; “inactive; negative” under setting [4]; “inactive; negative” under setting [6]; “inactive; negative” under setting [8]; “inactive; negative” (Test System: AMES SALMONELLA TYPHIMURIUM, Strain/Indicator: TA102, Metabolic Activation: NONE, Method: PREINCUBATION); “inactive; negative” (Test System: AMES SALMONELLA TYPHIMURIUM, Strain/Indicator: TA102, Metabolic Activation: RAT, LIVER, S-9, AROCLOR 1254, Method: PREINCUBATION).

These data come from PubChem BioAssay AID1259407 (Chemical Carcinogenesis Research Information System (CCRIS), 2018).
